# How the values were obtained:
# [1] = tested on: human PBMC; assay: fibrocyte formation in human PBMC, serum-free medium; assay type: cell-based; conditions: 5 days; for fibrocyte formation / differentiation: 100 ng/ml sialidase, 10 μg/ml DANA or 1 μg/ml SAP
# Procedure: Human peripheral blood was collected from healthy adult volunteers who gave written consent and with specific approval from the Texas A&M University human subjects Institutional Review Board. Peripheral blood mononuclear cells (PBMC) were isolated from blood using Ficoll-Paque Plus (GE Healthcare Biosciences, Piscataway, NJ). Human PBMC were incubated in serum-free medium (FibroLife basal media (LM-0001, Lifeline Cell Technology, Walkersville, MD), supplemented with 10 mM HEPES (Sigma-Aldrich, St. Louis, MO), 1x non-essential amino acids (Sigma-Aldrich), 1 mM sodium pyruvate (Sigma-Aldrich), 2 mM glutamine (Invitrogen, Carlsbad, CA), 100 U/ml penicillin, 100 μg/ml streptomycin (Sigma-Aldrich), and 1x ITS-3 (Sigma-Aldrich) in the presence of absence of 100 ng/ml recombinant human sialidases (Origene, Rockville MD), 10 μg/ml DANA (Calbiochem, San Diego, CA), or 1 μg/ml human SAP (Calbiochem). After 5 days, fibrocytes were counted, and results are presented in FIG. 5.
# [2] = tested on: human PBMC; assay: TGF-β1 accumulation by human PBMC (antibody staining and ELISA); assay type: cell-based
# Procedure: To determine if sialidases might cause cells to accumulate intracellular and extracellular TGF-β1, human PBMC were cultured with sialidases in 96 well plates at 5×10^5 cells/ml and 200 μl/well in FibroLife serum-free medium for five days, then air dried. The levels of TGF-β1 in or on the cells was detected by staining with an antibody against TGF-β1. Photomicrographs were analyzed by counting stained cells (FIG. 7B) and quantifying staining intensity using ImageJ (FIG. 7C).
# PBMC were cultured in 96 well plates at 5×10^5 cells/ml and 200 μl/well in FibroLife serum-free medium. When the cells were plated, recombinant human sialidases were added to final concentrations of 200 ng/ml, and DANA or oseltamivir were added to 3 μM. After 5 days, culture supernatants were analyzed using a TGF-β1 ELISA kit (R&D Systems).
# [3] = tested on: mice with bleomycin-induced fibrosis; assay: mouse bleomycin model of pulmonary fibrosis; assay type: in vivo; conditions: day 21
# Procedure: The successful aspiration of bleomycin into the lungs was confirmed by listening for a crackling noise heard after the aspiration. Mice were weighed daily, and euthanized using CO2 following NIH guidelines at day 21 after bleomycin aspiration. The experiment was performed in accordance with the recommendations in the Guide for the Care and Use of Laboratory Animals of the National Institutes of Health. The Texas A&M University Animal Use and Care Committee approved the protocol.
# The BALs were clarified by centrifugation at 500×g for 10 minutes, and the supernatants were transferred to Eppendorf tubes. The supernatants were flash frozen with liquid nitrogen, and stored at −20° C. until further use.
# After collection of BAL fluid, mouse lungs were inflated with prewarmed Optimal Cutting Temperature (OCT) embedding medium (VWR, Radnor, PA) and then embedded in OCT, frozen on dry ice, and then stored at −80° C. 6-micron cryosections of mouse lungs were mounted on Superfrost Plus® microscope slides (VWR). The sections on the slides were allowed to air-dry for 24-48 hours. The slides were then fixed in acetone at room temperature for 20 minutes and air-dried for 10 minutes.
# Then, starting 24 hours after bleomycin had been administered, the mice were given daily intraperitoneal injections of 10 mg/kg DANA (Calbiochem) in PBS or 10 mg/kg oseltamivir (Sigma) in PBS. Both inhibitors are quite polar and thus probably remain in the extracellular space. Assuming 2 ml of extracellular space in a 20 gram mouse, these doses would then be ˜3 μM. At day 21, mice were sacrificed and BAL and cryosections of lungs were obtained as described for Example 3. The experiment was performed in accordance with the recommendations in the Guide for the Care and Use of Laboratory Animals of the National Institutes of Health. The Texas A&M University Animal Use and Care Committee approved the protocol.
# Treatment of mice with oropharyngeal bleomycin results in an initial inflammation, and then a fibrosis that has begun by day 10 after bleomycin treatment. To determine if sialidase inhibitors decrease fibrosis when treatment starts after the initial inflammation stage and when fibrosis is present, mice were treated with oropharyngeal bleomycin to induce symptoms of pulmonary fibrosis as described above. Then, starting 10 days after bleomycin had been administered, the mice were given daily intraperitoneal injections of 10 mg/kg DANA (Calbiochem) in PBS or 10 mg/kg oseltamivir (Sigma) in PBS. At day 21, mice were sacrificed and BAL and cryosections of lungs were obtained as described above. The experiment was performed in accordance with the recommendations in the Guide for the Care and Use of Laboratory Animals of the National Institutes of Health. The Texas A&M University Animal Use and Care Committee approved the protocol.
# To determine if sialidase inhibitors could also reduce TGF-β1 levels in mice, mice were treated with bleomycin or saline, then injected daily with saline, DANA or oseltamivir starting at day 10 after bleomycin treatment, as described in Example 9. The mice were euthanized at day 21 and sections of lung tissue were stained for TGF-β1. Results are presented in FIG. 11A and are representative of results for three mice per group.
# [4] = molecular target: human NEU3 (Homo sapiens (Human), UniProt Q9UQ49); assay: human NEU3 sialidase inhibition; conditions: read-out: NEU3 IC50; human NEU3
# human NEU3, sequence (Q9UQ49 whole entry): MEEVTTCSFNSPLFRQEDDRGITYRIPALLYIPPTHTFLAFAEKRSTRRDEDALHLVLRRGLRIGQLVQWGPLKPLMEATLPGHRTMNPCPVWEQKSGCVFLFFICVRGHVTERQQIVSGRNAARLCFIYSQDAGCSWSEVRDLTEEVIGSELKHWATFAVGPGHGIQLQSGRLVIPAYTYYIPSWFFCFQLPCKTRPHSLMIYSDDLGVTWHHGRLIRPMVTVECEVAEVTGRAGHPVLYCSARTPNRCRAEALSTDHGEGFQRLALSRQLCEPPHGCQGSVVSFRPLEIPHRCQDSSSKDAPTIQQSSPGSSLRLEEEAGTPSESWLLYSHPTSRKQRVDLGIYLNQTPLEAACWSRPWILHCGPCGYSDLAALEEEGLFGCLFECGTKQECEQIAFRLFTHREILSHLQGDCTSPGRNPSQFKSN
# Text: Enzymatic activity may be defined as inhibited if the rate measured by the Michaelis-Menten equation in an in vitro assay using a substrate with a terminal sialic acid is inhibited by at least 50%. More specifically, a human sialidase inhibitor may be a compound that inhibits the rate of at least one human sialidase by at least 50% as measured by the Michaelis-Menten equation in an in vitro assay using the fluorometric substrate 4MU-NANA [2′-(4-Methylumbelliferyl)-α-D-N-acetylneuraminic acid.
# In general, sialidase activity, including human sialidase activity, may be assessed at 37° C. in the presence of buffers ranging in pH from 3.7 to 7.4. […] Bovine serum albumin (BSA) is added to the buffer at a concentration of 100 ug/ml. Sialidase at a final concentration of 300 ng/ml is then added to the buffer. A sialidase inhibitor is then added to the mixture at a series of final concentrations. The reaction mixture is incubated for 30 minutes to allow the inhibitor to bind the sialidase. The fluorometric substrate 4MU-NANA [2′-(4-Methylumbelliferyl)-α-D-N-acetylneuraminic acid sodium salt hydrate is then added at a final concentration of 200 μM. […] The total volume of each reaction mixture is 0.1 ml. The cleavage of 4MU-NANA is then monitored by fluorescence every 20 minutes for 5 hours with excitation light at 360 nm and the fluorescence emission at 460 nm.
# [5] = recombinant human sialidase activity, 4MU-NANA cleavage at pH 6.4 and 7.0; assay type: biochemical
# Procedure: In general, sialidase activity, including human sialidase activity, may be assessed at 37° C. in the presence of buffers ranging in pH from 3.7 to 7.4. Buffers with pH 3.7, 4.0, 4.6, 5.2 and 5.6 are 100 mM sodium acetate buffers. Buffers with pH 5.8, 6.4, 7.0 and 8.0 are based on Phosphate-Buffered Saline (PBS), with addition of 12 N HCl or 1 M NaOH to adjust the pH. Bovine serum albumin (BSA) is added to the buffer at a concentration of 100 ug/ml. Sialidase at a final concentration of 300 ng/ml is then added to the buffer. A sialidase inhibitor is then added to the mixture at a series of final concentrations. The reaction mixture is incubated for 30 minutes to allow the inhibitor to bind the sialidase. The fluorometric substrate 4MU-NANA [2′-(4-Methylumbelliferyl)-α-D-N-acetylneuraminic acid sodium salt hydrate is then added at a final concentration of 200 μM. Control reactions have no added inhibitor. The total volume of each reaction mixture is 0.1 ml. The cleavage of 4MU-NANA is then monitored by fluorescence every 20 minutes for 5 hours with excitation light at 360 nm and the fluorescence emission at 460 nm.
# The fluorescence in the absence of sialidases is subtracted from all readings. The fluorescence of known concentrations of 4-methylumbelliferone is used to convert fluorescence to moles of product. […]
# [6] = tested on: human monocytes and lymphocytes; assay: sialidase levels in human PBMC cultured with IL-6 (flow cytometry); assay type: cell-based; conditions: 100 and 1000 pg/ml IL-6; three days
# Procedure: To determine the effects of IL-6 on NEU3 production by human PBMC, PBMC were cultured as above in serum-free medium at 10^5 cells/ml with 2 ml/well in 6-well tissue culture plates (VWR) in the presence or absence of recombinant human interleukin-6 (IL-6) (BioLegend). After three days, the medium was carefully removed and the cells were washed with 1 ml of phosphate buffered saline (PBS) at room temperature. The cells were detached with 500 μl of Accutase cell detachment solution (VWR) per well for 6 minutes at 37° C. 1000 μl RPMI medium supplemented as described above with BCS, penicillin, streptomycin and glutamine was added per well to neutralize the Accutase. After pipetting the cell solutions 4 times, the cells were placed in sterile 1.7 ml microtubes (Genesee Scientific, San Diego, CA) and cells were collected by centrifugation at 5000×g for 10 minutes at 4° C. The pelleted cells were washed twice by resuspension with 1000 μl of ice-cold PBS and centrifugation. The cells were resuspended in 200 μl of ice-cold 2% (w/v) paraformaldehyde (EMS, Hatfield, PA), in PBS for 10 minutes on ice for fixation. 1000 μl of ice-cold PBS was added and cells were collected by centrifugation. The cells were resuspended in 200 μl of ice-cold 2% (w/v) bovine serum albumin (BSA) (VWR) in PBS (PBSA), for 10 minutes on ice for blocking. […]
# [7] = tested on: A549 cells; assay: sialidase staining of A549 cells cultured with TGF-β1; assay type: cell-based, human; conditions: 10 ng/ml TGF-β1, three days
# Procedure: (§1) TGF-β1 is strongly associated with fibrosis so its effects on sialidase expression were determined. Human lung adenocarcinoma cell line A549, human small airway epithelial cells, human pulmonary fibroblasts, and human immune cells were cultured with or without 10 ng/ml of recombinant active TGF-β1, which is a standard concentration used in tissue culture experiments. After three days for A549 cells, airway epithelial cells, and fibroblasts, or five days for immune cells, the cells were stained with antibodies against sialidases.
# [8] = tested on: human small airway epithelial cells; assay: sialidase staining of human small airway epithelial cells cultured with TGF-β1; assay type: cell-based; conditions: 10 ng/ml TGF-β1, three days
# Procedure: as §1
# [9] = tested on: human pulmonary fibroblasts; assay: human pulmonary fibroblasts cultured with TGF-β1; assay type: cell-based; conditions: 10 ng/ml TGF-β1, three days
# Procedure: as §1
# [10] = tested on: human PBMC; assay: sialidase staining of human PBMC cultured with TGF-β1; assay type: cell-based; conditions: 10 ng/ml TGF-β1, five days
# Procedure: as §1
molecule,measurement,setting,value
"CC(=O)N[C@H]1[C@H]([C@H](O)[C@H](O)CO)OC(C(=O)O)=C[C@@H]1O [Compound 1, N-Acetyl-2,3-dehydro-2-deoxyneuraminic acid, reference compound]",NEU4 potentiation of fibrocyte differentiation,[1]; 10 μg/ml DANA with 100 ng/ml NEU4,inhibited the NEU4 potentiation of fibrocyte differentiation
same,fibrocyte formation / differentiation,[1],inhibited fibrocyte differentiation
same,effects of NEU2 and NEU3 on extracellular TGF-β1,"[2]; inhibitor 3 μM, sialidases 200 ng/ml, 5 days, ELISA",blocked
same,collagen deposition in the lungs (Sirius red),[3]; 10 mg/kg daily i.p. starting 24 hours after bleomycin,reduced
same,collagen deposition in the lungs (Sirius red),[3]; 10 mg/kg daily i.p. starting at day 10,reduced
same,TGF-β1 levels in lung tissue (staining),[3]; daily injection starting at day 10,reduced TGF-β1 levels
same,IC50,[4],61 µM
"NEU1: recombinant human NEU1 (sialidase 1), human neuraminidase 1",Sialidase activity,[5]; pH 6.4,12.8 ± 1.3 μmole/min/mg protein
same,Sialidase activity,[5]; pH 7.0,7.2 ± 0.9 μmole/min/mg protein
same,ability of SAP to inhibit fibrocyte formation,[1]; 100 ng/ml sialidase with 1 μg/ml SAP,did not potentiate fibrocyte differentiation or counteract SAP
same,fibrocyte formation / differentiation,[1],did not potentiate fibrocyte differentiation
same,accumulation of TGF-β1,"[2]; recombinant sialidase 200 ng/ml, five days",no significant effect
IL-6: recombinant human interleukin-6 (IL-6) (BioLegend),levels of NEU3 in human monocytes and lymphocytes,[6],significantly increased
TGF-β1: recombinant active TGF-β1,sialidase levels (antibody staining),[7],increase levels of NEU3
same,sialidase levels (antibody staining),[8],"increase levels of NEU3, and slightly increased levels of NEU1"
same,proliferation of human pulmonary fibroblasts,[9],increased the proliferation
same,sialidase levels (antibody staining),[9]; pulmonary fibroblasts,increase levels of NEU3
same,sialidase levels (antibody staining),[10],increased levels of NEU2 and NEU3 in some cells
